Experimental data reported in patent US20200392116A1, “SUBSTITUTED HETEROCYCLES AS c-MYC TARGETING AGENTS” (NORTHWESTERN UNIVERSITY, priority 2019, published 2020).

Assay: Potency code of Table 2 (assay not stated)

## Oc1cc(OCc2ccc(Cl)cc2)ccc1-c1cc(C(F)(F)F)nc(-c2cccc(C(F)(F)F)c2)n1 [NUCC-0200500]
  Potency code: + (>40 +)

## CCCCCCOc1ccc(-c2cc(C(F)(F)F)n(C)n2)c(O)c1-c1cncc(C(F)(F)F)c1 [NUCC-0201210]
  Potency code: + (>40 +)

## COC(=O)c1cc(-c2ccc(OCc3ccc(Cl)cc3)c(-c3cc(C(F)(F)F)cc(C(F)(F)F)c3)c2O)nn1C [NUCC-0200970]
  Potency code: + (>40 +)

## Cn1cc(-c2cccnc2)c(-c2ccc(OCc3ccc(Cl)cc3)cc2O)n1 [NUCC-0198321]
  Potency code: + (>40 +)

## CCc1ccc(Oc2c(-c3ccc(OCCc4ccc(Cl)cc4)cc3O)nn(C)c2C(F)(F)F)cc1 [NUCC-0196356]
  Potency code: + (>40 +)

## Oc1c(-c2cc(C(F)(F)F)[nH]n2)ccc(OCc2ccc(Cl)cc2)c1-c1ccc(C(F)(F)F)cc1Cl [NUCC-0200737]
  Potency code: + (>40 +)

## Cn1cc(-c2ccc(OCc3ccc(Cl)cc3)cc2CO)c(C(F)(F)F)n1 [NUCC-0200813]
  Potency code: + (>40 +)

## Cn1nc(-c2ccc(OCc3ccc(Cl)cc3)cc2O)c(Oc2cccc(F)c2)c1C(F)(F)F [NUCC-0196302]
  Potency code: + (>40 +)

## Cc1ccc(C)c(Oc2cn(C)nc2-c2ccc(OCc3cccc(Cl)c3)cc2O)c1 [NUCC-0196287]
  Potency code: + (>40 +)

## Oc1c(-c2cc(C(F)(F)F)[nH]n2)ccc(OCc2ccc(Cl)cc2)c1-c1ccsc1 [NUCC-0201909]
  Potency code: + (>40 +)

## Oc1c(-c2cc(C(F)(F)F)[nH]n2)ccc(OCc2ccc(Cl)cc2)c1-c1cc(C(F)(F)F)cc(C(F)(F)F)c1 [NUCC-0196362]
  Potency code: ++ (30-40 ++)

## Cc1ccc(C)c(Oc2cn(C)nc2-c2ccc(OCCN3CCCCC3)cc2O)c1 [NUCC-0196299]
  Potency code: + (>40 +)

## Cn1nc(C(F)(F)F)c(-c2ccccc2)c1-c1ccc(OCc2ccc(Cl)cc2)cc1O [NUCC-0198296]
  Potency code: + (>40 +)

## Cn1nc(C(F)(F)F)cc1-c1ccc(OCCc2ccc(Cl)cc2)c(-c2cc(C(F)(F)F)cc(C(F)(F)F)c2)c1O [NUCC-0201025]
  Potency code: ++ (30-40 ++)

## Cn1cc(-c2ccoc2)c(-c2ccc(OCc3ccc(Cl)cc3)cc2O)n1 [NUCC-0198324]
  Potency code: + (>40 +)

## CCCCCCOc1ccc(-c2cc(C(F)(F)F)n(C)n2)c(O)c1-c1cncc(C#N)c1 [NUCC-0201212]
  Potency code: + (>40 +)

## Cn1nc(C(F)(F)F)cc1-c1ccc(OCc2ccc(Cl)cc2)cn1 [NUCC-0200690]
  Potency code: + (>40 +)

## N#Cc1cccc(-c2c(C(F)(F)F)n[nH]c2-c2cc(OCc3ccc(Cl)cc3)ccc2O)c1 [NUCC-0200571]
  Potency code: + (>40 +)

## CCCCOc1ccc(-c2cc(C(F)(F)F)n[nH]2)c(O)c1-c1ccc(Cl)c(C(F)(F)F)c1 [NUCC-0201225]
  Potency code: + (>40 +)

## CCCCOc1ccc(-c2cc(C(F)(F)F)n(C)n2)c(O)c1-c1ccc(Cl)c(C(F)(F)F)c1 [NUCC-0201227]
  Potency code: ++++ (<10 ++++)

## O=CNc1ccc(Nc2ccc(-c3cc(C(F)(F)F)[nH]n3)c(O)c2)cc1 [NUCC-0200563]
  Potency code: + (>40 +)

## Cn1nc(C(F)(F)F)cc1-c1ccc(OCc2ccc(Cl)cc2)c(-c2ccc(C(F)(F)F)cc2Cl)c1O [NUCC-0200738]
  Potency code: +++ (10-30 +++)

## Nc1nc(-c2ccc(OCc3ccc(Cl)cc3)cc2O)cc(C(F)(F)F)n1 [NUCC-0200502]
  Potency code: + (>40 +)

## COc1ccc(-c2c(-c3ccc(OCc4ccc(Cl)cc4)cc3O)n[nH]c2C(F)(F)F)cc1OC [NUCC-0196283]
  Potency code: ++++ (<10 ++++)

## [N-]=[N+]=NCCOCCOCCOCC(=O)Nc1ccc(COc2ccc(-c3cc(C(F)(F)F)n[nH]3)c(O)c2-c2cc(C(F)(F)F)cc(C(F)(F)F)c2)cc1 [NUCC-0201199]
  Potency code: +++ (10-30 +++)

## CCc1ccc(Oc2c[nH]nc2-c2ccc(OCc3ccc(C(F)(F)F)cc3)cc2O)cc1 [NUCC-0176244]
  Potency code: + (>40 +)

## Cn1nc(-c2ccc(OCc3ccc(Cl)cc3)c(-c3cccnc3)c2O)cc1C(F)(F)F [NUCC-0196364]
  Potency code: + (>40 +)

## COc1ccc(-c2c[nH]nc2-c2ccc(OCc3ccc(Cl)cc3)cc2O)cc1 [NUCC-0198304]
  Potency code: + (>40 +)

## COc1ccc(-c2c(-c3ccc(OCc4ccc(Cl)cc4)cc3O)n[nH]c2C(F)(F)F)cc1 [NUCC-0196312]
  Potency code: + (>40 +)

## CCCCOc1ccc(-c2cc(C(F)(F)F)nn2C)c(O)c1-c1cncc(C#N)c1 [NUCC-0201638]
  Potency code: + (>40 +)

## CC(C)CCOc1ccc(-c2cc(C(F)(F)F)nn2C)c(O)c1-c1ccc(Cl)c(C(F)(F)F)c1 [NUCC-0201635]
  Potency code: + (>40 +)

## COc1ccc(CCOc2ccc(-c3cc(C(F)(F)F)nn3C)c(O)c2-c2cc(C(F)(F)F)cc(C(F)(F)F)c2)cc1 [NUCC-0201028]
  Potency code: + (>40 +)

## CCc1[nH]nc(-c2ccc(OCc3ccc(Cl)cc3)cc2O)c1-c1cccc(OC)c1 [NUCC-0198315]
  Potency code: + (>40 +)

## Cn1nc(-c2ccc(N)cc2O)cc1C(F)(F)F [NUCC-0200498]
  Potency code: + (>40 +)

## CCc1ccc(Oc2c(-c3ccc(OCCc4ccc(Cl)cc4)cc3O)n[nH]c2C(F)(F)F)cc1 [NUCC-0196357]
  Potency code: +++ (10-30 +++)

## Oc1c(-c2cc(C(F)(F)F)[nH]n2)ccc(OCc2ccc(Cl)cc2)c1-c1ccc(C(F)(F)F)cc1 [NUCC-0200725]
  Potency code: + (>40 +)

## CC(C)CCOc1ccc(-c2cc(C(F)(F)F)nn2C)c(O)c1-c1cncc(C(F)(F)F)c1 [NUCC-0201206]
  Potency code: ++++ (<10 ++++)

## CC(C)CCOc1ccc(-c2cc(C(F)(F)F)n(C)n2)c(O)c1-c1cncc(C(F)(F)F)c1 [NUCC-0201211]
  Potency code: + (>40 +)

## CCc1ccc(Oc2c(-c3ccc(O)cc3N)nn(C)c2C(F)(F)F)cc1 [NUCC-0200682]
  Potency code: + (>40 +)

## [N-]=[N+]=NCCOCCOCCOCCOCC(=O)Nc1ccc(COc2ccc(-c3cc(C(F)(F)F)n[nH]3)c(O)c2-c2cc(C(F)(F)F)cc(C(F)(F)F)c2)cc1 [NUCC-0201200]
  Potency code: + (>40 +)

## Cn1cc(-c2ccc(OCc3ccc(Cl)cc3)cc2C=O)c(C(F)(F)F)n1 [NUCC-0200815]
  Potency code: + (>40 +)

## NCCOc1ccc(-c2cc(C(F)(F)F)n[nH]2)c(O)c1-c1ccc(Cl)c(C(F)(F)F)c1 [NUCC-0201640]
  Potency code: + (>40 +)

## COc1ccc(-c2cc(C(F)(F)F)nn2C)c(O)c1-c1cc(C(F)(F)F)cc(C(F)(F)F)c1 [NUCC-0201222]
  Potency code: +++ (10-30 +++)

## c1ccc(COc2ccccc2-c2nn[nH]c2-c2ccccc2)cc1 [NUCC-0200722]
  Potency code: + (>40 +)

## CC(C)CCOc1ccc(-c2cc(C(F)(F)F)nn2C)c(O)c1-c1cncc(C#N)c1 [NUCC-0201208]
  Potency code: ++++ (<10 ++++)

## N#Cc1cncc(-c2c(OCc3ccc(Cl)cc3)ccc(-c3cc(C(F)(F)F)n[nH]3)c2O)c1 [NUCC-0201038]
  Potency code: ++++ (<10 ++++)

## Cn1nc(-c2ccc(OCc3ccc(Cl)cc3)c(-c3cc(C(F)(F)F)cc(C(F)(F)F)c3)c2O)cc1C(F)(F)F [NUCC-0196360]
  Potency code: + (>40 +)

## CCCOc1ccc(-c2cc(C(F)(F)F)n[nH]2)c(O)c1-c1cc(C(F)(F)F)cc(C(F)(F)F)c1 [NUCC-0201197]
  Potency code: +++ (10-30 +++)

## Cn1nc(C(F)(F)F)cc1-c1ccc(OCc2ccc(Cl)cc2)c(-c2ccc(C(F)(F)F)cc2)c1O [NUCC-0200726]
  Potency code: + (>40 +)

## Cn1cc(-c2c[nH]nc2-c2ccc(OCc3ccc(Cl)cc3)cc2O)cn1 [NUCC-0198361]
  Potency code: + (>40 +)

## Cc1cc(C)c(-c2cn(C)nc2-c2ccc(OCc3ccc(Cl)cc3)cc2O)c(C)c1 [NUCC-0198360]
  Potency code: + (>40 +)

## CCc1c(-c2ccccc2)c(-c2ccc(OCc3ccc(Cl)cc3)cc2O)nn1C [NUCC-0198303]
  Potency code: + (>40 +)

## COc1ccc(COc2ccc(-c3cc(C(F)(F)F)n[nH]3)c(O)c2-c2cc(C(F)(F)F)cc(C(F)(F)F)c2)cc1 [NUCC-0201041]
  Potency code: + (>40 +)

## Cn1nc(-c2ccc(OCc3ccc(Cl)cc3)c(-c3cncc(C(F)(F)F)c3)c2O)cc1C(F)(F)F [NUCC-0201631]
  Potency code: + (>40 +)

## Cn1nc(C(F)(F)F)cc1-c1ccc(OCc2ccc(F)cc2)c(-c2cc(C(F)(F)F)cc(C(F)(F)F)c2)c1O [NUCC-0201034]
  Potency code: + (>40 +)

## Oc1cc(OCc2ccc(Cl)cc2)ccc1-c1n[nH]cc1-c1cccnc1 [NUCC-0198320]
  Potency code: + (>40 +)

## Cc1ccc(C)c(Oc2cn(C)nc2-c2ccc(OCc3ccc4ccccc4c3)cc2O)c1 [NUCC-0196291]
  Potency code: + (>40 +)

## O=C(CCc1cn(CCOCCOCCOCC(=O)Nc2cccc3c2C(=O)N(C2CCC(=O)NC2=O)C3=O)nn1)NCCOc1ccc(-c2cc(C(F)(F)F)n[nH]2)c(O)c1-c1cncc(C(F)(F)F)c1 (stereo not drawn) [NUCC-0201660]
  Potency code: + (>40 +)

## CCc1ccc(Oc2c[nH]nc2-c2ccc(OCc3cnn(C)c3)cc2O)cc1 [NUCC-0176246]
  Potency code: + (>40 +)

## Oc1c(-c2cc(C(F)(F)F)[nH]n2)ccc(OCc2ccc(Cl)cc2)c1-c1cccc(C(F)(F)F)c1 [NUCC-0200730]
  Potency code: + (>40 +)

## Cn1nc(-c2ccc(OCc3ccc(Cl)cc3)c(Br)c2O)cc1C(F)(F)F [NUCC-0198408]
  Potency code: + (>40 +)

## Cn1cc(-c2cnc(OCc3ccc(Cl)cc3)cn2)c(C(F)(F)F)n1 [NUCC-0200747]
  Potency code: + (>40 +)

## CCc1ccc(Oc2c[nH]nc2-c2ccc(OCc3ccc(F)cc3)cc2O)cc1 [NUCC-0176257]
  Potency code: + (>40 +)

## Oc1c(-c2cc(C(F)(F)F)n[nH]2)ccc(OCCc2ccc(Cl)cc2)c1-c1cc(C(F)(F)F)cc(C(F)(F)F)c1 [NUCC-0201024]
  Potency code: ++++ (<10 ++++)

## Cc1ccc(C)c(Oc2cn(C)nc2-c2ccc(OCc3ccc(Cl)cc3)cc2O)c1 [NUCC-0196285]
  Potency code: + (>40 +)

## Cn1cc(-c2ccc(OCc3ccc(Cl)cc3)cc2Cl)c(C(F)(F)F)n1 [NUCC-0200814]
  Potency code: + (>40 +)

## Cn1nc(-c2ccc(O)c(-c3cc(C(F)(F)F)cc(C(F)(F)F)c3)c2O)cc1C(F)(F)F [NUCC-0200724]
  Potency code: + (>40 +)

## Oc1cc(OCc2ccc(Cl)cc2)ccc1-c1n[nH]c(C(F)(F)F)c1-c1ccccc1 [NUCC-0198295]
  Potency code: ++++ (<10 ++++)

## Cn1cc(-c2ccc(OCc3ccc(Cl)cc3)cn2)c(C(F)(F)F)n1 [NUCC-0200741]
  Potency code: + (>40 +)
